Assay [1] concerns p185BCR-ABL/Arf-/- pre-B ALL cells. The assay can be described thus: Acute lymphoblastic leukemia (ALL) model, bioluminescence imaging. The settings on record: 50 mg/kg, days 4, 6, 8, 11 after inoculation. The format is in vivo, NSG mice. As to the method:
The efficacy of Compound 9R and (R)-DI-82 single agent therapy against short-term cultures of murine BCR-ABL (p185), Arf^−/− pre-B ALL cells (p185^BCR-ABL/Arf^−/−) was assessed. This assay was previously described in Boulos, N. et al., 2011. “Chemotherapeutic agents circumvent emergence of dasatinib-resistant BCR-ABL kinase mutations in a precise mouse model of Philadelphia chromosome-positive acute lymphoblastic leukemia, Blood, 117:3585-3595 and Nathanson, D. 2014 “Co-targeting of convergent nucleotide biosynthetic pathways for leukemia eradication” J. Exp. Med. 211(3): 473-486, all of which are incorporated herein by reference.
Bioluminescent imaging and data analysis were performed using a Xenogen IVIS-200 system and Living Image Version 3.01 software (Caliper Life Sciences). […] Total flux measurements (photons/second) were quantified over the whole-animal body or a contour drawn around a target organ. […]
To evaluate the efficacy of Compound 9R and (R)-DI-82 in an in vivo B-ALL model, firefly luciferase—marked p185^BCR-ABL/Arf^−/− cells were inoculated intravenously in NSG mice. 4 days, 6 days, 8 days and 11 days after inoculation, bioluminescence imaging (BLI) of firefly luciferase-marked p185^BCR-ABL/Arf^−/− ALL-bearing NSG mice treated with 50 mg/kg compound 9R or 50 mg/kg (R)-DI-82 were measured. […]

The target of assay [2] is T1, dCK (Homo sapiens, UniProt P27707).
T1 construct: endogenous in cells; host or cells: CEM cells
T1 sequence (P27707 whole entry): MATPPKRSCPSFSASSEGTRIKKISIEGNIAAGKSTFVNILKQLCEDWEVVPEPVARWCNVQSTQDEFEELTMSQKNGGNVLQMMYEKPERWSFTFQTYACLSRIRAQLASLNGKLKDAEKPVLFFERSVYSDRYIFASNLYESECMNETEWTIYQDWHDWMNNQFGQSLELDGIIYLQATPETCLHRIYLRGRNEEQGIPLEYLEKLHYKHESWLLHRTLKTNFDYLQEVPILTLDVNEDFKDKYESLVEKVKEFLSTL
The assay can be described thus: Inhibition of [3H]-deoxycytidine (dCyd) uptake by CEM cells. The format is cell-based. The conditions noted are these: read-out: dCKi-IC-50. Here is the method:
50,000 CEM cells/well were added to Millipore MultiScreen GV 96 well plates. Cells were resuspended at […] and incubated for 30 minutes at 37° C. The drug dilution plate was prepared by starting with an initial drug concentration of 10 mM in DMSO, and proceeding to make 1:5 dilutions for drug. […] and mixed by pipetting 10 times before removing 10 uL for next well (1:5 serial dilutions). The media and tritiated deoxycytidine was mixed together. […] of media/probe mixture was added to each well of an Optiplate. […] from drug plate was added to each well in the Optiplate to obtain drug/media/probe mixture and mixed. […] of drug/media/probe mixture from Optiplate was added to the cell plate and incubate at 37° C. for 1 hour. The cell plate was placed on vacuum to aspirate, and then washed with ice cold PBS: […] 1×PBS 4 times. The backing of the plate was peeled off, and the plate was placed in dryer for at least 30 minutes or until dry at 37° C. […] Scintillation fluid per well was added, and the plate was sealed with clear plate seal. The plate was read on the Microbeta instrument.

The test system of assay [3] is HUKEMIA Acute Myeloid Leukemia model AM-7577. Put plainly: Acute myeloid leukemia study, HUKEMIA model AM-7577 in NOD/SCID mice. The format is in vivo, Mus Musculus. The conditions noted are these: for ILS (increase in life-span): vs vehicle group. Here is the method: In this study, NOD/SCID mice were injected (i.v.) with cells from a human donor diagnosed with AML (IDH2, FLT3-ITD, DNMT3A, and CEBPA mutations identified). Tumor burden was assessed by evaluation of human CD45 positive leukemia cells using FACS. The primary end point was animal survival. Median survival time (MST) and increase in life-span (ILS) were calculated for all animals.
The animals were inoculated HUKEMIA® Model AM-7577. The vehicle and treatment injections were started on Day 9 post cell inoculation Day 10 post cell inoculation, respectively.
Weekly Monitoring: Body weight was monitored twice a week. Human leukemia cells was detected by FACS weekly by CD45.
Endpoints and/or Termination: The end points varied according to the tumor burden growth in Vehicle group. The major end point was animal survival. The survival of all animals was followed and median survival time (MST) was calculated for each group. The increase in life-span (ILS) was calculated as follows: ILS (%)=100×[(Median Survival Time of drug treated group/Median Survival Time of vehicle group)−1](%).
Statistical Analysis: Data was evaluated using one way ANOVA. All data was analyzed using Prism 5.0 and IBM SPSS Statistics 19.0. p<0.05 was considered to be statistically significant.

For assay [4], the target named is dCK (Mus musculus, UniProt P43346). The assay can be described thus: Inhibition of dCK activity in vivo by [18F]L-FAC PET/CT imaging. The settings on record: mice, IP injection, [18F]L-FAC 4 h after treatment.
Chain of dCK (Mus musculus, UniProt P43346) (P43346 whole entry): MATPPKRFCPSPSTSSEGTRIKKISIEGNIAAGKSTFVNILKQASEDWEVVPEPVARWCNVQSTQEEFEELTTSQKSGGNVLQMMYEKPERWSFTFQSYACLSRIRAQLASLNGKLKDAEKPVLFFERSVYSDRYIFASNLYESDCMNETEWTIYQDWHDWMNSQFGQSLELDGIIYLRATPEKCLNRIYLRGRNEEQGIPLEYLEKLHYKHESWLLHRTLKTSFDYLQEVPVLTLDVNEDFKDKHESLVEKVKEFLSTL
Experimental: [^18F]L-FAC PET/CT scans were performed as described in Shu, C.

“Also recorded” adds a separate entry of the source. Read-outs that look alike come from different tables or passages of the source.

On to `COc1ccc(-c2nc([C@@H](C)Sc3nc(N)cc(N)n3)c(C)s2)cc1OCCNS(C)(=O)=O` [(R)-DI-82, (R)—N-(2-(5-(4-(1-(4,6-diaminopyrimidin-2-ylthio)ethyl)-5-methylthiazol-2-yl)-2-methoxyphenoxy)ethyl)methanesulfonamide], for which the “efficacy in the p185BCR-ABL/Arf-/- ALL model (bioluminescence)” value in assay [1] is “show efficacy”.

For the compound `COc1ccc(-c2nc([C@@H](C)Sc3nc(N)cc(N)n3)c(C)s2)cc1OCCN1CCOCC1` [Compound 9R, (R)-2-(1-(2-(4-methoxy-3-(2-morpholinoethoxy)phenyl)-5-methylthiazol-4-yl)ethylthio)pyrimidine-4,6-diamine], the IC50 on dCK [2] ([3H]-dCyd uptake) was determined as 3.15 nM; on dCK [2] ([3H]dC uptake, 0 mg/mL BSA) it was 4.03 nM; at dCK [2] ([3H]dC uptake, 25 mg/mL BSA), 6.87 nM; on dCK [2] ([3H]dC uptake, 50 mg/mL BSA), 11.6 nM. The “tumor burden growth (human CD45 by FACS)” value in assay [3] (25 mg/Kg) is “significant increase post cells inoculation day 29”; in assay [3] (50 mg/Kg) it was “slowly increased during Day 29 to Day 44 post cell inoculation”; in assay [3] (100 mg/Kg), “slowly increased during Day 29 to Day 44 post cell inoculation”. Further, the Median survival in assay [3] (25 mg/kg po BID x 46 days) is 49 days; in assay [3] (50 mg/kg po BID x 46 days), 54 days; in assay [3] (100 mg/kg po BID x 46 days) it was 54 days. The “ILS (increase in life-span)” value in assay [3] (25 mg/kg po BID) was found to be 0%; in assay [3] (50 mg/kg po BID), 10%; in assay [3] (100 mg/kg po BID), 10%. Also, in assay [3] (100 mg/kg, day 44 post cell inoculation, p=0.021), the “tumor burden in peripheral blood vs vehicle” value was “significant antitumor effects”. Also, the “inhibition of dCK activity in vivo ([18F]L-FAC PET/CT)” value on dCK [4] is reported as “strongly inhibit dCK activity in vivo; also recorded: greater inhibition of dCK”.

Consider `COc1ccc(-c2nc([C@H](C)Sc3nc(N)cc(N)n3)c(C)s2)cc1OCCN1CCOCC1` [Compound 9S, (S)-2-(1-(2-(4-methoxy-3-(2-morpholinoethoxy)phenyl)-5-methylthiazol-4-yl)ethylthio)pyrimidine-4,6-diamine], for which, at dCK [2] ([3H]-dCyd uptake), the IC50 turned out to be 468 nM.

Values taken from patent US10570124B2, “Deoxycytidine kinase binding compounds” (THE REGENTS OF THE UNIVERSITY OF CALIFORNIA, priority 2016, dated 2020).
